The record followed here is patent US7692014B2, “Inhibitors of the HIV integrase enzyme” (Pfizer, Inc., priority 2004, dated 2010).

Each structure is given as a SMILES string. Where two headings read alike, the source gives them in different places.

The term IC50 denotes the point on the concentration scale where inhibition reaches its midpoint.

The target of this test is T1, Full-length wild type HIV-1 integrase (SF1) (Human immunodeficiency virus type 1 group M subtype B, UniProt P04585).
T1 construct: made in house; host or cells: E. coli BL21 (DE3), pET24a vector
Kind of test: Integrase strand-transfer scintillation proximity assay. It is filed as biochemical. From the text: Integrase Strand-Transfer Scintillation Proximity Assay Oligonucleotides
The annealed product represents preprocessed viral ds-DNA derived from the LTR U5 sequence of the viral genome. A ds-DNA control to test for non-specific interactions was made using a 3′ di-deoxy derivative of oligonucleotide #1 annealed to oligonucleotide #2. The CA overhang at the 5′ end of the non-biotinylated strand of the ds-DNA was created artificially by using a complimentary DNA oligonucleotide shortened by 2 base pairs. This configuration eliminates the requisite 3′ processing step of the integrase enzyme prior to the strand-transfer mechanism.
Host ds-DNA was prepared as an unlabeled and [^3H]-thymidine labeled product from annealed oligonucleotide #3—5-[…]-3′ (SEQ ID NO: 3), and oligonucleotide #4—5′-[…]-3′ (SEQ ID NO: 4), both synthesized by TriLink BioTechnologies, Inc. (San Diego, Calif.). The annealed product had overhanging 3′ ends of poly(dA). […] The radiolabeled product was purified using a NENSORB cartridge and stored in stabilized aqueous solution (PerkinElmer).
Reagents: Streptavidin-coated polyvinyltoluene (PVT) SPA beads were purchased from Amersham Biosciences (Piscataway, N.J.). Cesium chloride was purchased from Shelton Scientific, Inc. (Shelton, Conn.). White, polystyrene, flat-bottom, non-binding surface, 96-well plates were purchased from Corning. All other buffer components were purchased from Sigma (St. Louis, Mo.) unless otherwise indicated. Enzyme Construction: Full-length wild type HIV-1 integrase (SF1) sequence (amino acids 1-288) was constructed in a pET24a vector (Novagen, Madison, Wis.). […] Enzyme Purification: Full length wild-type HIV Integrase was expressed in E.coli BL21 (DE3) cells and induced with 1 mM isopropyl-1 thio-β-D-galactopyranoside (IPTG) when cells reached an optical density between 0.8-1.0 at 600 nm. Cells were lysed by microfluidation in 50 mM HEPES pH 7.0, 75 mM NaCl, 5 mM DTT, 1 mM 4-(2-Aminoethyl)benzenesulfonylfluoride HCl (AEBSF). Lysate was then centrifuged 20 minutes at 11 k rpm in GSA rotor in Sorvall RC-5B at 4° C. Supernant was discarded and pellet resuspended in 50 mM HEPES pH 7.0, 750 mM NaCl, 5 mM DTT, 1 mM AEBSF and homogenized in a 40 mL Dounce homogenizer for 20 minutes on ice. Homogenate was then centrifuged 20 minutes at 11 k rpm in SS34 rotor in Sorvall RC-5B at 4° C. Supernant was discarded and pellet resuspended in 50 mM HEPES pH 7.0, 750 mM NaCl, 25 mM CHAPS, 5 mM DTT, 1 mM AEBSF. Preparation was then centrifuged 20 minutes at 11 k rpm in SS34 rotor in Sorvall RC-5B at 4° C.
Supernant was then diluted 1:1 with 50 mM HEPES pH 7.0, 25 mM CHAPS, 1 mM DTT, 1 mM AEBSF and loaded onto a Q-Sepharose column pre-equilibrated with 50 mM HEPES, pH 7.0, 375 mM NaCl, 25 mM CHAPS, 1 mM DTT, 1 mM AEBSF. The flow through peak was collected and NaCl diluted to 0.1 M with 50 mM HEPES pH 7.0, 25 mM CHAPS, 1 mM DTT, 0.5 mM AEBSF and loaded onto a SP-Sepharose column pre-equilibrated with 50 mM HEPES pH 7.0, 100 mM NaCl, 25 mM CHAPS, 1 mM DTT, 0.5 mM AEBSF. After washing the column with the equilibration buffer, a 100 to 400 mM NaCl gradient was run. The eluted integrase was concentrated and run on a S-300 gel diffusion column using 50 mM HEPES pH 7.0, 500 mM NaCl, 25 mM CHAPS, 1 mM DTT, 0.5 mM AEBSF. […] All columns were run in a 4° C. cold room.
Viral DNA Bead Preparation: Streptavidin-coated SPA beads were suspended to 20 mg/mL in 25 mM 3-morpholinopropanesulfonic acid (MOPS) (pH 7.2) and 1.0% NaN3.
Background: SPA uses beads or plates that emit light when radiolabelled molecules are held near them.

Where [1] appears, read: integrase strand-transfer SPA, read-out: IC50.
The mark [2] stands for this setting: IC50, integrase strand-transfer SPA.

For `CCS(=O)(=O)N1CCN(Cc2cn(Cc3ccc(F)cc3)c3cnc4c(=O)n(O)ccc4c23)CC1` [Example 52, 1-{[4-(ethylsulfonyl)piperazin-1-yl]methyl}-3-(4-fluorobenzyl)-7-hydroxy-3,7-dihydro-6H-pyrrolo[2,3-c]-1,7-naphthyridin-6-one], the IC50 under setting [1] came to 10.5 nM. The same measure, in the same setting: then `O=C1CN(Cc2cn(Cc3ccc(F)cc3)c3cnc4c(=O)n(O)ccc4c23)CCN1` [Example 6, 3-(4-fluorobenzyl)-7-hydroxy-1-[(3-oxopiperazin-1-yl)methyl]-3,7-dihydro-6H-pyrrolo(2,3-c]-1,7-naphthyridin-6-one], with 7 nM. As for `CCN(Cc1cn(Cc2ccc(F)cc2)c2cnc3c(=O)n(O)ccc3c12)C1CCCCC1` [Example 14, 1-{[cyclohexyl(ethyl)amino]methyl}-3-(4-fluorobenzyl)-7-hydroxy-3,7-dihydro-6H-pyrrolo[2,3-c]-1,7-naphthyridin-6-one], the IC50 under setting [1] is 13 nM. As to `COCCOCc1cn(Cc2ccc(F)cc2)c2cnc3c(=O)n(O)ccc3c12` [Example 36, 3-(4-fluorobenzyl)-7-hydroxy-1-[(2-methoxyethoxy)methyl]-3,7-dihydro-6H-pyrrolo[2,3-c]-1,7-naphthyridin-6-one], under setting [1], the IC50 is 20 nM. Still for that read-out and setting: then `CCN1CCN(Cc2cn(Cc3ccc(F)cc3)c3cnc4c(=O)n(O)ccc4c23)CC1` [Example 8, 1[(4-ethylpiperazin-1-yl)methyl]-3-(4-fluorobenzyl)-7-hydroxy-3,7-dihydro-6H-pyrrolo[2,3-c]-1,7-naphthyridin-6-one], with 14 nM; and `O=C(NCCc1cnccn1)c1cn(Cc2ccc(F)cc2)c2cnc3c(=O)n(O)ccc3c12` [Example 28, 3-(4-fluorobenzyl)-7-hydroxy-6-oxo-N-(2-pyrazin-2-ylethyl)-6,7-dihydro-3H-pyrrolo[2,3-c]-1,7-naphthyridine-1-carboxamide], with 12 nM. Consider `CN(C)Cc1cn(Cc2ccc(F)cc2)c2cnc3c(=O)n(O)ccc3c12` [Example 4, 1-[(dimethylamino)methyl]-3-(4-fluorobenzyl)-7-hydroxy-3,7-dihydro-6H-pyrrolo[2,3-c]-1,7-naphthyridin-6-one], for which the IC50 under setting [1] was found to be 8 nM. Same read-out and setting: then `O=c1c2ncc3c(c(CNCc4ccc(C(F)(F)F)cc4)cn3Cc3ccc(F)cc3)c2ccn1O` [Example 43, 3-(4-fluorobenzyl)-7-hydroxy-1-({[4-(trifluoromethyl)benzyl]amino}methyl)3,7-dihydro-6H-pyrrolo[2,3-c]-1,7-naphthyridin-6-one], with 122 nM.

For the compound `CN1CCN(Cc2cn(Cc3ccc(F)cc3)c3cnc4c(=O)n(O)ccc4c23)CC1` [Example 7, 3-(4-fluorobenzyl)-7-hydroxy-1-[(4-methylpiperazin-1-yl)methyl]-3,7-dihydro-6H-pyrrolo[2,3-c]-1,7-naphthyridin-6-one], under setting [1], the IC50 was 17 nM. Still for that read-out and setting: then `Cc1cccc(CNCc2cn(Cc3ccc(F)cc3)c3cnc4c(=O)n(O)ccc4c23)c1` [Example 41, 3-(4-fluorobenzyl)-7-hydroxy-1-{[(3-methylbenzyl)amino]methyl}-3,7-dihydro-6H-pyrrolo[2,3-c]-1,7-naphthyridin-6-one], with 42 nM.

As to `CN(CCc1ccccn1)Cc1cn(Cc2ccc(F)cc2)c2cnc3c(=O)n(O)ccc3c12` [Example 16, 3-(4-fluorobenzyl)-7-hydroxy-1-{[methyl (2-pyridin-2-ylethyl)amino]methyl}-3,7-dihydro-6H-pyrrolo[2,3-c]-1,7-naphthyridin-6-one], under setting [1], the IC50 was 6 nM. Same read-out and setting: the result for `NC(=O)[C@@H]1CCCN1S(=O)(=O)c1cn(Cc2ccc(F)cc2)c2cnc3c(=O)n(O)ccc3c12` [Example 20, 1-{[3-(4-fluorobenzyl)-7-hydroxy-6-oxo-6,7-dihydro-3H-pyrrolo[2,3-c]-1,7-naphthyridin-1-yl]sulfonyl)-L-prolinamide] reads 9 nM.

As for `NC(=O)[C@@H]1CCCN1Cc1cn(Cc2ccc(F)cc2)c2cnc3c(=O)n(O)ccc3c12` [Example 5, 1-{[3-(4-fluorobenzyl)-7-hydroxy-6-oxo-6,7-dihydro-3H-pyrrolo[2,3-c]-1,7-naphthyridin-1-yl]methyl}-L-prolinamide], inhibition under setting [2] was half-maximal at 18 nM (IC50). Consider `O=c1c2ncc3c(c(CNC4(CO)CCCC4)cn3Cc3ccc(F)cc3)c2ccn1O` [Example 39, 3-(4-fluorobenzyl)-7-hydroxy-1-({[1-(hydroxymethyl)cyclopentyl]amino)methyl)-3,7-dihydro-6H-pyrrolo[2,3-c]-1,7-naphthyridin-6-one], for which, under setting [1], the IC50 is 79 nM. The same measure, in the same setting: then `O=c1c2ncc3c(c(S(=O)(=O)NCC(F)(F)F)cn3Cc3ccc(F)cc3)c2ccn1O` [Example 24, 3-(4-fluorobenzyl)-7-hydroxy-6-oxo-N-(2,2,2-trifluoroethyl)-6,7-dihydro-3H-pyrrolo[2,3-c]-1,7-naphthyridine-1-sulfonamide], with 5 nM; and `O=C1CN(S(=O)(=O)c2cn(Cc3ccc(F)cc3)c3cnc4c(=O)n(O)ccc4c23)CCN1` [Example 22, 3-(4-fluorobenzyl)-7-hydroxy-1-[(3-oxopiperazin-1-yl)sulfonyl]-3,7-dihydro-6H-pyrrolo[2,3-c]-1,7-naphthyridin-6-one], with 6 nM; and `O=c1c2ncc3c(c(S(=O)(=O)NCCc4c[nH]c5ccccc45)cn3Cc3ccc(F)cc3)c2ccn1O` [Example 21, 3-(4-fluorobenzyl)-7-hydroxy-N-{2-(1H-indol-3-yl)ethyl]-6-oxo-6,7-dihydro-3H-pyrrolo[2,3-c]-1,7-naphthyridine-1-sulfonamide], with 46 nM. With `CN(Cc1ccccc1)Cc1cn(Cc2ccc(F)cc2)c2cnc3c(=O)n(O)ccc3c12` [Example 54, 1-{[benzyl(methyl)amino]methyl}-3-(4-fluorobenzyl)-7-hydroxy-3,7-dihydro-6H-pyrrolo[2,3-c]-1,7-naphthyridin-6-one], the IC50 under setting [2] came out at 13.5 nM. On to `CN(Cc1cnn(-c2ccccc2)c1)Cc1cn(Cc2ccc(F)cc2)c2cnc3c(=O)n(O)ccc3c12` [Example 59, 3-(4-fluorobenzyl)-7-hydroxy-1-({methyl[(1-phenyl-1H-pyrazol-4-yl)methyl]amino}methyl)-3,7-dihydro-6H-pyrrolo[2,3-c]-1,7-naphthyridin-6-one], for which, under setting [1], the IC50 came out at 19 nM. On the same count and under the same terms, then `CCCCc1cc2c(ncc3c2ccn3Cc2ccc(F)cc2)c(=O)n1O` [Example 46, 8-butyl-3-(4-fluorobenzyl)-7-hydroxy-3,7-dihydro-6H-pyrrolo[2,3-c]-1,7-naphthyridin-6-one], with 49 nM; and `Cc1cnc(CNCc2cn(Cc3ccc(F)cc3)c3cnc4c(=O)n(O)ccc4c23)cn1` [Example 42, 3-(4-fluorobenzyl)-7-hydroxy-1-({[(5-methylpyrazin-2-yl)methyl]amino)methyl)-3,7-dihydro-6H-pyrrolo[2,3-c]-1,7-naphthyridin-6-one], with 54 nM; and `O=C1c2ncc3c(ccn3Cc3ccc(F)cc3)c2CCN1O` [Example 2, 3-(4-Fluorobenzyl)-7-hydroxy-3,7,8,9-tetrahydro-6H-pyrrolo[2,3-c]-1,7-naphthyridin-6-one], with 30 nM. Same read-out and setting: then `O=C1NCCC12CCN(Cc1cn(Cc3ccc(F)cc3)c3cnc4c(=O)n(O)ccc4c13)CC2` [Example 13, 3-(4-fluorobenzyl)-7-hydroxy-1-[(1-oxo-2,8-diazaspiro[4,5]dec-8-yl)methyl]-3,7-dihydro-6H-pyrrolo[2,3-c]-1,7-naphthyridin-6-one], with 8 nM.
